For 16 molecules, T/C results are on record in PubChem BioAssay AID248 (DTP/NCI, 2004).

The subject of this experiment is L1210 leukemia ip in BDF1 mice, survival T/C. Put plainly: NCI In Vivo Anticancer Drug Screen. Data for tumor model L1210 Leukemia (intraperitoneal) in B6D2F1 (BDF1) mice. The following applies: endpoint: mean survival time, higher = longer survival. Summed up:
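Transplanted-tumor mice were given test agent; controls received vehicle only. Survival readings from the two groups were divided (treated over control).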

The mark [1] stands for this setting: dose: 100.0 mg/kg/injection, schedule: Q01DX001 (ip), vehicle: other.
[2] abbreviates: dose: 200.0 mg/kg/injection, schedule: Q01DX001 (ip), vehicle: other.
[3] abbreviates: dose: 400.0 mg/kg/injection, schedule: Q01DX001 (ip), vehicle: other.
The mark [4] stands for this setting: dose: 100.0 mg/kg/injection, schedule: Q01DX001 (ip), vehicle: saline.
[5] abbreviates: dose: 200.0 mg/kg/injection, schedule: Q01DX001 (ip), vehicle: saline.
The mark [6] stands for this setting: dose: 400.0 mg/kg/injection, schedule: Q01DX001 (ip), vehicle: saline.
The mark [7] stands for this setting: dose: 600.0 mg/kg/injection, schedule: Q01DX001 (ip), vehicle: saline.
Where [8] appears, read: dose: 50.0 mg/kg/injection, schedule: Q01DX001 (ip), vehicle: saline.
[9] abbreviates: dose: 100.0 mg/kg/injection, schedule: Q04DX002 (ip), vehicle: saline with Tween-80.
Where [10] appears, read: dose: 100.0 mg/kg/injection, schedule: Q04DX003 (ip), vehicle: Klucel (hydroxypropylcellulose) (HPC).
Setting [11] is: dose: 200.0 mg/kg/injection, schedule: Q04DX002 (ip), vehicle: saline with Tween-80.
The mark [12] stands for this setting: dose: 200.0 mg/kg/injection, schedule: Q04DX003 (ip), vehicle: Klucel (hydroxypropylcellulose) (HPC).
Setting [13] is: dose: 400.0 mg/kg/injection, schedule: Q04DX003 (ip), vehicle: Klucel (hydroxypropylcellulose) (HPC).

Where “and” joins values, the source holds several entries; their conditions need not be identical. Equal entries are not always repeated. Toxic doses and inconclusive results are not listed.

For the molecule `CCCB(O)O`, the T/C runs as follows: under setting [1], 100 % of control; (dose: 100.0 mg/kg/injection, schedule: Q04DX003 (ip), vehicle: other) 106 % of control; under setting [2], 101 % of control; (dose: 200.0 mg/kg/injection, schedule: Q04DX003 (ip), vehicle: other) 105 % of control; under setting [3], 101 % of control; (dose: 400.0 mg/kg/injection, schedule: Q04DX003 (ip), vehicle: other) 106 % of control.
Regarding `Brc1ccccc1C=C1c2ccccc2-c2ccccc21`, the T/C (dose: 100.0 mg/kg/injection, schedule: Q04DX003 (ip), vehicle: saline with Tween-80) was 102 % of control; the T/C (dose: 200.0 mg/kg/injection, schedule: Q04DX003 (ip), vehicle: saline with Tween-80) was 101 % of control; the T/C (dose: 400.0 mg/kg/injection, schedule: Q04DX003 (ip), vehicle: saline with Tween-80) was 96 % of control.
On to `CC1C(Cl)(Cl)C1(C)/C=C/C1C(C)(C)C1(Cl)Cl` (stereo not drawn), for which the T/C by setting is: under setting [1], 260 % of control; under setting [4], 106 % of control; (dose: 178.0 mg/kg/injection, schedule: Q01DX001 (ip), vehicle: saline) 101 % of control; under setting [2], 117 % of control; under setting [5], 108 % of control; (dose: 267.0 mg/kg/injection, schedule: Q01DX001 (ip), vehicle: saline) 97 % of control. Further, the T/C is 202 % of control under setting [3]; 95 % of control and 97 % of control under setting [6]; 88 % of control under setting [7].
Regarding `O=C(CCCC(=O)N/N=C/c1c(O)ccc2ccccc12)N/N=C/c1c(O)ccc2ccccc12`, the T/C is, setting by setting: under setting [8], 96 % of control; under setting [4], 96 % of control; under setting [5], 96 % of control; under setting [6], 93 % of control.
Consider `C[CH2][Sb]([Cl])([CH2]C)([CH2]C)[O][Sb]([Cl])([CH2]C)([CH2]C)[CH2]C`, for which the T/C (dose: 10.0 mg/kg/injection, schedule: Q01DX001 (ip), vehicle: saline) is 109 % of control; the T/C (dose: 20.0 mg/kg/injection, schedule: Q01DX001 (ip), vehicle: saline) is 114 % of control; the T/C (dose: 40.0 mg/kg/injection, schedule: Q01DX001 (ip), vehicle: saline) is 123 % of control.
Consider `c1ccc(P(CCP(CCP(c2ccccc2)c2ccccc2)c2ccccc2)CCP(c2ccccc2)c2ccccc2)cc1` (stereo not drawn), for which the T/C is 90 % of control under setting [9]; 101 % of control (dose: 100.0 mg/kg/injection, schedule: Q04DX002 (ip), vehicle: saline); 95 % of control and 101 % of control under setting [10]; 96 % of control under setting [11]; 96 % of control (dose: 200.0 mg/kg/injection, schedule: Q04DX002 (ip), vehicle: saline); 96 % of control and 102 % of control under setting [12]. Also, the T/C (dose: 400.0 mg/kg/injection, schedule: Q04DX002 (ip), vehicle: saline with Tween-80) was 93 % of control; the T/C (dose: 400.0 mg/kg/injection, schedule: Q04DX002 (ip), vehicle: saline) is 101 % of control; the T/C under setting [13] was 93 % of control.
With `CN(C)N=Nc1ccc(C(=O)O)cc1`, the T/C is 108 % of control (dose: 25.0 mg/kg/injection, schedule: Q01DX009 (ip), vehicle: saline with Tween-80); 113 % of control and 120 % of control (dose: 50.0 mg/kg/injection, schedule: Q01DX009 (ip), vehicle: saline with Tween-80); 108 % of control (dose: 59.0 mg/kg/injection, schedule: Q04DX003 (ip), vehicle: saline); 113 % of control (dose: 88.0 mg/kg/injection, schedule: Q04DX003 (ip), vehicle: saline); 109 % of control (dose: 100.0 mg/kg/injection, schedule: Q04DX003 (ip), vehicle: saline); 119 % of control (dose: 133.0 mg/kg/injection, schedule: Q04DX003 (ip), vehicle: saline). The T/C was 117 % of control (dose: 200.0 mg/kg/injection, schedule: Q01DX009 (ip), vehicle: saline with Tween-80) and 105 % of control (dose: 400.0 mg/kg/injection, schedule: Q04DX003 (ip), vehicle: saline).
For `CC(=O)Nc1ccc(CCCCc2cccc(C#N)c2)cc1`, the T/C was 95 % of control (dose: 50.0 mg/kg/injection, schedule: Q01DX009 (ip), vehicle: saline); 100 % of control (dose: 100.0 mg/kg/injection, schedule: Q01DX009 (ip), vehicle: saline); 97 % of control (dose: 200.0 mg/kg/injection, schedule: Q01DX009 (ip), vehicle: saline).
Consider `O=P(O)(Oc1cccc(Cl)c1)Oc1cccc(Cl)c1`, for which the T/C is 115 % of control under setting [9] and 104 % of control under setting [11].
`O=C1c2ccccc2-c2nc3ncccc3nc21`: the T/C is, setting by setting: under setting [10], 101 % of control; under setting [12], 98 % of control; under setting [13], 98 % of control.
Regarding `S=c1nc[nH]c2c1ncn2CN1CCOCC1`, the T/C (dose: 30.0 mg/kg/injection, schedule: Q01DX015 (ip), vehicle: saline) was 119 % of control; the T/C (dose: 42.0 mg/kg/injection, schedule: Q01DX009 (ip), vehicle: carboxymethylcellulose (CMC)) was 118 % of control; the T/C (dose: 80.0 mg/kg/injection, schedule: Q01DX015 (ip), vehicle: saline) is 153 % of control; the T/C (dose: 100.0 mg/kg/injection, schedule: Q01DX001 (ip), vehicle: carboxymethylcellulose (CMC)) is 112 % of control; the T/C under setting [4] was 110 % of control; the T/C (dose: 120.0 mg/kg/injection, schedule: Q01DX009 (ip), vehicle: carboxymethylcellulose (CMC)) is 168 % of control. The T/C is, setting by setting: (dose: 135.0 mg/kg/injection, schedule: Q01DX015 (ip), vehicle: saline) 152 % of control; (dose: 177.0 mg/kg/injection, schedule: Q01DX001 (ip), vehicle: saline) 152 % of control; under setting [5], 122 % of control; (dose: 200.0 mg/kg/injection, schedule: Q01DX009 (ip), vehicle: carboxymethylcellulose (CMC)) 91 % of control; (dose: 266.0 mg/kg/injection, schedule: Q01DX001 (ip), vehicle: saline) 163 % of control; (dose: 400.0 mg/kg/injection, schedule: Q01DX001 (ip), vehicle: carboxymethylcellulose (CMC)) 164 % of control and 166 % of control. In addition, the T/C is, setting by setting: under setting [6], 152 % of control; under setting [7], 152 % of control.
With `OC(CI)C(O)CI` (stereo not drawn), the T/C reads like this: (dose: 75.0 mg/kg/injection, schedule: Q01DX001 (ip), vehicle: other) 104 % of control; (dose: 150.0 mg/kg/injection, schedule: Q01DX001 (ip), vehicle: other) 106 % of control and 86 % of control; (dose: 300.0 mg/kg/injection, schedule: Q01DX001 (ip), vehicle: other) 101 % of control.
Turning to `O=C(CCCC(=O)N/N=C/C1CC=CCC1)N/N=C\C1CC=CCC1` (stereo not drawn), the T/C (dose: 50.0 mg/kg/injection, schedule: Q01DX001 (ip), vehicle: other) was 90 % of control; the T/C under setting [1] is 90 % of control; the T/C under setting [3] was 98 % of control.
`CCNc1nc(C)c2nc(C(=O)OCC)c(=O)[nH]c2n1`: the T/C (dose: 50.0 mg/kg/injection, schedule: Q01DX009 (ip), vehicle: Klucel (hydroxypropylcellulose) (HPC)) was 95 % of control; the T/C (dose: 100.0 mg/kg/injection, schedule: Q01DX009 (ip), vehicle: Klucel (hydroxypropylcellulose) (HPC)) is 95 % of control; the T/C (dose: 200.0 mg/kg/injection, schedule: Q01DX009 (ip), vehicle: Klucel (hydroxypropylcellulose) (HPC)) is 98 % of control.
In the case of `Clc1ccc(CSc2ncc(Br)c(Nc3cc(Cl)ccc3Cl)n2)cc1`, the T/C is, setting by setting: (dose: 50.0 mg/kg/injection, schedule: Q01DX Z (ip), vehicle: methylcellulose (MC)) 96 % of control; (dose: 200.0 mg/kg/injection, schedule: Q01DX Z (ip), vehicle: methylcellulose (MC)) 89 % of control.
In the case of `CC(OCCC#N)C(C)OCCC#N` (stereo not drawn), the T/C is 93 % of control (dose: 44.0 mg/kg/injection, schedule: Q01DX001 (ip), vehicle: saline); 102 % of control (dose: 45.0 mg/kg/injection, schedule: Q01DX001 (ip), vehicle: saline); 98 % of control under setting [8]; 96 % of control and 104 % of control (dose: 67.0 mg/kg/injection, schedule: Q01DX001 (ip), vehicle: saline); 98 % of control and 101 % of control (2×) under setting [4]; 101 % of control and 102 % of control (dose: 150.0 mg/kg/injection, schedule: Q01DX001 (ip), vehicle: saline). For the same molecule, the T/C reads like this: under setting [5], 98 % of control; under setting [6], 98 % of control.
